Experiment [1] relates to HCT116 homozygous MTAP knockout cells. Kind of experiment: Proliferation assay (CellTiter-Glo, 10 days) in HCT116 homozygous MTAP knockout cells. Conditions: CellTiter-Glo after 10 days of treatment, read-out: Proliferation IC50 (nM) HCT116 MTAP_KO. In kind it is cell-based. The gist of the method:
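CellTiter-Glo viability read on day 11 gives a 10-day IC50. Dosing began one day after seeding, with a 1:10 split into fresh drug-containing medium on day 6. Cells are HCT116 lacking both MTAP alleles via CRISPR/Cas9, run alongside the parental line.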
In general terms: ATP-based viability assays read luminescence as a measure of living cells.

Experiment [2] concerns PRMT5-dependent Symmetric Di-methyl Arginine signal in HCT116 homozygous MTAP Knockout cells. The experiment can be described thus: SYM11 In-Cell Western in HCT116 homozygous MTAP knockout cells. In kind it is cell-based. The note with it: 4 days of treatment, SYM11/DRAQ5 ratio as percent of DMSO control, read-out: In-cell-Western (SYM11) IC50 (nM) HCT116 MTAP_KO. On the procedure: HCT116 cells were genetically engineered to knock out the function of both MTAP alleles using a CRISPR/Cas9 system and an sgRNA targeting the MTAP gene. Following Cas9/MTAP sgRNA transduction, clones were screened to confirm that each allele of the MTAP gene had been inactivated (i.e., homozygous MTAP knock out) creating an MTAP-deficient cell.
Control samples were analyzed in parallel.
Briefly, on Day 0, 2,000 HCT116 parental or HCT116 homozygous MTAP knockout cells were seeded in 96 well plates in McCoy's 5A supplemented with 10% fetal bovine serum and pen/strep and the cells were incubated overnight at 37° C. plus 5% CO2. The following day, cells were treated with DMSO vehicle control or a dose response of PRMT5 inhibitors, and incubated at 37° C. plus 5% CO^2 for four days.
After 4 days of treatment, the cells were fixed by adding 50 μl of 4% paraformaldehyde solution to each well and the cells were incubated for 20 min at room temperature. The paraformaldehyde solution was removed, 150 μl of ice-cold methanol was added and the plate was placed −20° C. for 10 minutes. The methanol was removed, 150 μl of Odyssey Blocking buffer+0.05% Tween20 was added and the plate was incubated at room temperature with shaking for one hour.
The primary SYM11 antibody solution was removed by aspiration and the wells were washed three consecutive times with phosphate buffered saline containing 0.1% Tween-20 (PBST).
The secondary antibody solution was removed by aspiration and the wells were washed three consecutive times with PBST.
The SYM11 signal and the DRAQ5 signal were quantified using a Li-Cor Odyssey machine reading at […], respectively. The SYM11/DRAQ5 ratio was used to calculate the inhibition of Symmetric Dimethyl Arginine as percent of DMSO control.

Experiment [3] has as its target T1, PRMT5/MEP50 complex (Homo sapiens, UniProt O14744).
T1 construct: purchased Reaction Biology Corporation
The experiment can be described thus: PRMT5:MEP50 HotSpot Assay (full-length histone H2A substrate, plus and minus MTA). Format: biochemical. Conditions: IC50 + 2 μM MTA, in the presence of 2 μM MTA. In short, it runs like this:
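Tritiated product on full-length recombinant H2A was counted by scintillation after the stopped reaction was captured on filter paper. Substrate is histone H2A; conditions include plus and minus MTA.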

The results in this text go back to patent US20240208912A1 (Mirati Therapeutics, Inc., priority 2021, published 2024).

Read-outs that look alike come from different tables or passages of the source.

T1 sequence (O14744 2-637 limits assumed): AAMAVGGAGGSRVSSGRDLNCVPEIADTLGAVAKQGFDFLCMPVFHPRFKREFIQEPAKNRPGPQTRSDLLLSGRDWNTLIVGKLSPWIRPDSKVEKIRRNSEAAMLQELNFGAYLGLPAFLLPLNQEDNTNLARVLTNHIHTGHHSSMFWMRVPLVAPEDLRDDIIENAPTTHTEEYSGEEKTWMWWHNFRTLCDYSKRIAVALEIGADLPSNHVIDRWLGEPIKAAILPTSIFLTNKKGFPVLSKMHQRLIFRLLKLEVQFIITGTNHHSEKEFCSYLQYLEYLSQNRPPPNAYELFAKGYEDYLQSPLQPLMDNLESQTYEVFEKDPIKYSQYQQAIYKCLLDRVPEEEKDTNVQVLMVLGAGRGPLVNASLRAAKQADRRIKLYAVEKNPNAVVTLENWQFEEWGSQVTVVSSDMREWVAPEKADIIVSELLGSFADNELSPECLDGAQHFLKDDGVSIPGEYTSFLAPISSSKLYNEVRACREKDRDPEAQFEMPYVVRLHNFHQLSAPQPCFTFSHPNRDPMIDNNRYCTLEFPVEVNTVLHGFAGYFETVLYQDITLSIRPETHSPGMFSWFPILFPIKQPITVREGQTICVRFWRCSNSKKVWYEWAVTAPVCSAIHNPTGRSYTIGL
T1 sequence (Q9BQA1 2-342 partner limits assumed): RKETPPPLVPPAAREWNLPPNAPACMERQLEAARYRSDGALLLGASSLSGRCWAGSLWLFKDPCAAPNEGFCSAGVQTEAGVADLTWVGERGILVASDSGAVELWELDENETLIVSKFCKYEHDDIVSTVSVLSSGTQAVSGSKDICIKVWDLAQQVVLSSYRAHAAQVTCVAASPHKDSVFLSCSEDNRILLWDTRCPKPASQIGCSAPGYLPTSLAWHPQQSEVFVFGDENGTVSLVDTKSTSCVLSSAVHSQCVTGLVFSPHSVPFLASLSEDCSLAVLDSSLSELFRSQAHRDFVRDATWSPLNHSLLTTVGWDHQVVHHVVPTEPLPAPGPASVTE

Turning to `Cc1cc(-c2cnn(C)c2-c2c(F)cc3ccccc3c2C#N)cc2c(CN)n[nH]c(=O)c12` (single isomer, unassigned) [Example 16-16, (M)-2-[4-[4-(aminomethyl)-8-methyl-1-oxo-2H-phthalazin-6-yl]-2-methyl-pyrazol-3-yl]-3-fluoro-naphthalene-1-carbonitrile], the figures for the IC50 in experiment [1], in experiment [2] and in experiment [3] were 6 nM, 6 nM and 0.0136 µM, respectively.

For the compound `Cc1c(F)c(-c2c(-c3cc(C)c4c(=O)[nH]nc(CN)c4c3)cnn2C)c(C#N)c2ccccc12` (single isomer, unassigned) [Example 16-41, (P)-2-[4-[4-(aminomethyl)-8-methyl-1-oxo-2H-phthalazin-6-yl]-2-methyl-pyrazol-3-yl]-3-fluoro-4-methyl-naphthalene-1-carbonitrile], the results for the IC50 in experiment [1], in experiment [2] and in experiment [3] were 290 nM, 246 nM and 0.64 µM, respectively.

In the case of `Cn1ncc(-c2ccc3c(=O)[nH]nc(CN)c3c2)c1-c1c(F)c(Cl)c2ccccc2c1C#N` (single isomer, unassigned) [Example 16-9, (P)-2-[4-[4-(aminomethyl)-1-oxo-2H-phthalazin-6-yl]-2-methyl-pyrazol-3-yl]-4-chloro-3-fluoro-naphthalene-1-carbonitrile], the IC50 in experiment [1] amounted to 307 nM; in experiment [2], 93 nM; in experiment [3] it was 0.248 µM.

For `Cn1ncc(-c2ccc3c(=O)[nH]nc(CN)c3c2)c1-c1c(C#N)cc2ccccc2c1Cl` (single isomer, unassigned) [Example 16-6], the IC50 in experiment [1] is 64 nM; in experiment [2], 20 nM; in experiment [3], 0.028 µM.

As to `Cc1cc(-c2cnn(C)c2-c2c(C#N)cc3ccccc3c2Cl)cc2c(CN)n[nH]c(=O)c12` (single isomer, unassigned) [Example 16-52, (M)-3-[4-[4-(aminomethyl)-8-methyl-1-oxo-2H-phthalazin-6-yl]-2-methyl-pyrazol-3-yl]-4-chloro-naphthalene-2-carbonitrile], the IC50 in experiment [1] is 19 nM; in experiment [2], 13 nM; in experiment [3], 0.0291 µM.

Take `Cc1cc(-c2cnn(C)c2-c2c(F)ccc(OC3CC3)c2C#N)cc2c(CN)n[nH]c(=O)c12` (atropisomer, axis not shown; (P)) [Example 16-47, (P)-2-[4-[4-(aminomethyl)-8-methyl-1-oxo-2H-phthalazin-6-yl]-2-methyl-pyrazol-3-yl]-6-(cyclopropoxy)-3-fluoro-benzonitrile]: the IC50 was 51 nM in experiment [1]; 11 nM in experiment [2] (Homo sapiens, HCT-116, 96 h); 0.304 µM in experiment [3].

`Cc1cc(-c2cnn(C)c2-c2c(C#N)cc3ccccc3c2Cl)cc2c(CN)n[nH]c(=O)c12` (single isomer, unassigned) [Example 16-51, (P)-3-[4-[4-(aminomethyl)-8-methyl-1-oxo-2H-phthalazin-6-yl]-2-methyl-pyrazol-3-yl]-4-chloro-naphthalene-2-carbonitrile]: the IC50 in experiment [1] was found to be 706 nM; in experiment [2], 6 nM; in experiment [3], 0.261 µM.

With `Cn1ncc(-c2ccc3c(=O)[nH]nc(CN)c3c2)c1-c1sc2ccc(Cl)cc2c1C#N` [Example 4-262, 2-[4-[4-(aminomethyl)-1-oxo-2H-phthalazin-6-yl]-2-methyl-pyrazol-3-yl]-5-chloro-benzothiophene-3-carbonitrile], the IC50 came out at 281 nM in experiment [1] (Homo sapiens, HCT-116, 240 h); 98 nM in experiment [2] (Homo sapiens, HCT-116, 96 h); 0.108 µM in experiment [3].

As for `Cn1ncc(-c2ccc3c(=O)[nH]nc(CN)c3c2)c1-c1c(F)c(Cl)c2ccccc2c1C#N` (single isomer, unassigned) [Example 16-10, (M)-2-[4-[4-(aminomethyl)-1-oxo-2H-phthalazin-6-yl]-2-methyl-pyrazol-3-yl]-4-chloro-3-fluoro-naphthalene-1-carbonitrile], the IC50 in experiment [1] amounted to 10 nM; in experiment [2], 3 nM; in experiment [3], 0.0158 µM.
